The text below walks through data of patent US20200289481A1, “SUSTAINED-RELEASE PHARMACEUTICAL COMPOSITION” (ISHIHARA SANGYO KAISHA, LTD., priority 2017, published 2020).

The nature of series [1]: Evaluation test of elution in phosphate-buffered saline (pH 7.4), elution rate of compound 1 by UPLC-MS. It counts as physicochemical. The following applies: phosphate-buffered saline pH 7.4, 37°C, shaking 60 strokes/min. How it is done:
(§1) Quantitative determination of the concentration of the compound 1 in the following Test Examples and Reference Examples was performed using ultra-high performance liquid chromatography with a single quadrupole mass spectrometer as a detector.
An evaluation test of the elution of the fine particle a prepared in Reference Example 1-1 was performed in the same manner as in Test Example 1 mentioned later. Specifically, the fine particle a (10 mg) was added to phosphate-buffered saline (pH 7.4, 30 mL), and using a shaker, the mixture was horizontally shaken at 37° C. for 24 hours at a shaking speed of 60 strokes/min and with a shaking width of 2.0 cm/stroke to evaluate “elution”. Quantitative determination of the concentration of the compound 1 was performed using ultra-high performance liquid chromatography with a single quadrupole mass spectrometer as a detector to calculate an elution rate. The test results of the fine particle a are shown in Table 1 below together with the test results of the compound 1 bulk powder obtained in Test Example 1 mentioned later.
Using the fine particles A, B, C, D and E prepared in Test Example 1-1 and the compound 1 bulk powder, an evaluation test of each elution was performed. Each of the fine particles A, B, C, D and E and the compound 1 bulk powder (10 mg) was added to phosphate-buffered saline (pH 7.4, 30 mL), and using a shaker, the mixtures were horizontally shaken at 37° C. for 24 hours at a shaking speed of 60 strokes/min and with a shaking width of 2.0 cm/stroke to evaluate “elution”. Quantitative determination of the concentration of the compound 1 was performed using ultra-high performance liquid chromatography with a single quadrupole mass spectrometer as a detector to calculate an elution rate.
Using the fine particle F prepared in Test Example 2-1 and the compound 1 bulk powder, an evaluation test of each elution was performed in the same manner as in Test Example 1. Each of the fine particle F and the compound 1 bulk powder (10 mg) was added to phosphate-buffered saline (pH 7.4, 30 mL), and using a shaker, the mixtures were horizontally shaken at 37° C. for 72 hours at a shaking speed of 60 strokes/min and with a shaking width of 2.0 cm/stroke to evaluate “elution”.

Series [2] can be described thus: Pharmacokinetic evaluation: concentration of compound 1 in plasma after single administration to SD male rats. It counts as in vivo. The following applies: for BA / AUC(0-inf) / Cmax / Tmax / half-life: 5 mg/kg as compound 1, single, SD male rats; for AUC(0-inf) / Cmax / Tmax / half-life: rat, plasma. On the procedure: as §1
To evaluate the sustained-release ability of fine particle B, the concentration of the compound 1 in blood was measured over time after subcutaneous administration of the fine particle B or the compound 1 bulk powder to rats or after oral administration of the compound 1 bulk powder to rats. The fine particle B was suspended in physiological saline and the compound 1 bulk powder was dissolved in physiological saline, and then 5 mg/kg each as an amount of the compound 1 was singly administered to SD male rats. After administration, blood was collected over time from the tail vein, and the blood was transferred into a micro test tube treated with heparin, and immediately cooled in ice. After cooling in ice, the blood was immediately centrifuged at 4° C. and 10,000 g for 10 minutes. The concentration of the compound 1 in plasma thus obtained was quantitatively determined using ultra-high performance liquid chromatography with a single quadrupole mass spectrometer as a detector.
Cmax, Tmax, T1/2, AUC0-∞ and BA represent maximum blood concentration (concentration at the peak of blood concentration curve), time to reach maximum blood concentration (time to reach the peak of blood concentration curve), half-life of the concentration of drug in blood, area under curve from initiation of administration to drug elimination and bioavailability, respectively.
To evaluate the sustained-release ability of fine particle F, the concentration of the compound 1 in blood was measured over time after subcutaneous administration of the fine particle F prepared in Test Example 2-1 or the compound 1 bulk powder to rats. The method was same as in Test Example 1-3. Specifically, the fine particle F was suspended in physiological saline and the compound 1 bulk powder was dissolved in physiological saline, and then 5 mg/kg each as an amount of the compound 1 was singly subcutaneously administered to SD male rats. After subcutaneous administration, blood was collected over time from the tail vein, and the blood was transferred into a micro test tube treated with heparin, and immediately cooled in ice. After cooling in ice, the blood was immediately centrifuged at 4° C. and 10,000 g for 10 minutes. The concentration of the compound 1 in plasma thus obtained was quantitatively determined using ultra-high performance liquid chromatography with a single quadrupole mass spectrometer as a detector.
To evaluate the sustained-release ability of the hydrogel a prepared in Reference Example 3-1, the concentration of the compound 1 in blood was measured over time after subcutaneous administration of the hydrogel a or the compound 1 bulk powder to rats. Specifically, the hydrogel a or the compound 1 bulk powder at a dose of 5 mg/kg as an amount of the compound 1 was singly subcutaneously administered to SD male rats. After subcutaneous administration, blood was collected over time from the tail vein, and the blood was transferred into a micro test tube treated with heparin, and immediately cooled in ice. After cooling in ice, the blood was immediately centrifuged at 4° C. and 10,000 g for 10 minutes. The concentration of the compound 1 in plasma thus obtained was quantitatively determined using ultra-high performance liquid chromatography with a single quadrupole mass spectrometer as a detector. […]

Where [3] appears, read: sc, subcutaneous administration.
Setting [4] is: subcutaneous administration, 5 mg/kg as compound 1, SD male rats.

Where a name gives a salt, the structure may show the parent alone.

As to `CCS(=O)(=O)Nc1ncc(C(F)(F)F)cc1NC(=O)C1CCCCC1` [Compound 1 bulk powder, N-(2-ethylsulfonylamino-5-trifluoromethyl-3-pyridyl)cyclohexanecarboxamide-monosodium salt-monohydrate], the Elution rate in series [1] (Time 0 h) was determined as 0%; in series [1] (Time 0.5 h) it was 83.73 ± 4.31%; in series [1] (Time 1 h), 93.59 ± 1.63%; in series [1] (Time 3 h), 94.77 ± 2.26%; in series [1] (Time 6 h), 92.00 ± 2.45%; in series [1] (Time 12 h) it was 91.63 ± 1.84%. Besides, the Elution rate in series [1] (Time 24 h) is given as 97.10 ± 1.96%; in series [1] (Time 48 h), 91.10 ± 3.80%; in series [1] (Time 72 h) it was 93.29 ± 1.36%. Also, the BA in series [2] (oral administration) is on record as 41%; in series [2] (subcutaneous administration), 67%. Further, the results for the AUC(0-inf) in series [2] (setting [3]) and in series [2] (oral administration) were 8550 ± 600 ng·h/mL and 5160 ± 200 ng·h/mL, respectively. Moreover, the Cmax turned out to be 9600 ± 700 ng/mL in series [2] (setting [3]) and 3100 ± 500 ng/mL in series [2] (oral administration). Moreover, the Tmax in series [2] (setting [3]) and in series [2] (oral administration) was 15 min in each case. Further, the figures for the half-life in series [2] (setting [3]) and in series [2] (oral administration) were 21.6 min and 68.4 ± 12 min, respectively. In addition, the “Concentration of compound 1 in plasma at 12 hours after administration” value in series [2] (setting [4]) is listed as “below the detection limit”. In series [2] (setting [4]), the “Concentration of compound 1 in plasma at 24 hours after administration” value was “below the detection limit”.
